Source: PubChem BioAssay (NCI)
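How tested: cells in 96-well plates exposed to compound for 48 hours at five concentrations. GI50 is the concentration that inhibits growth by half. The concentration for full growth arrest is given as TGI.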

Experiments:
Assay in all cases: NCI tumour cell line growth inhibition, 48 h
[1] = test system: K-562 leukemia
[2] = test system: MDA-MB-435
[3] = test system: SK-MEL-2 melanoma
[4] = test system: NCI/ADR-RES ovarian
[5] = test system: HT29 colon
[6] = test system: ACHN renal
[7] = test system: A498 renal
[8] = test system: HOP-92 NSCLC
[9] = test system: SK-MEL-28 melanoma
[10] = test system: SW-620 colon
[11] = test system: PC-3 prostate
[12] = test system: A549 NSCLC
[13] = test system: EKVX NSCLC
[14] = test system: DU-145 prostate
[15] = test system: HL-60(TB) leukemia
[16] = test system: RPMI-8226 leukemia
[17] = test system: HS 578T breast
[18] = test system: MCF7 breast
[19] = test system: SN12C renal
[20] = test system: SK-MEL-5 melanoma
[21] = test system: M14 melanoma
[22] = test system: HOP-62 NSCLC
[23] = test system: LOX IMVI melanoma
[24] = test system: NCI-H23 lung
[25] = test system: SNB-19 CNS
[26] = test system: SNB-75 CNS
[27] = test system: SR leukemia
[28] = test system: SF-295 CNS
[29] = test system: OVCAR-3 ovarian
[30] = test system: HCC-2998 colon
[31] = test system: BT-549 breast
[32] = test system: MALME-3M melanoma
[33] = test system: 786-0 renal
[34] = test system: OVCAR-8 ovarian
[35] = test system: RXF 393 renal
[36] = test system: CAKI-1 renal
[37] = test system: HCT-15 colon
[38] = test system: TK-10 renal
[39] = test system: SF-268 CNS
[40] = test system: IGROV1 ovarian
[41] = test system: HCT-116 colon
[42] = test system: KM12 colon
[43] = test system: NCI-H460 lung
[44] = test system: MDA-MB-231 breast
[45] = test system: SK-OV-3 ovarian
[46] = test system: U251 CNS
[47] = test system: OVCAR-4 ovarian
[48] = test system: COLO 205 colon
[49] = test system: UACC-62 melanoma
[50] = test system: CCRF-CEM leukemia
[51] = test system: MOLT-4 leukemia
[52] = test system: UO-31 renal
[53] = test system: NCI-H522 lung
[54] = test system: NCI-H226 lung

CN(C)CCOc1ccc(/C(=C(/CCCCCCCCCC[P+](c2ccccc2)(c2ccccc2)c2ccccc2)c2ccccc2)c2ccccc2)cc1
GI50 [1]: 0.0389 µM | TGI [1]: > 100 µM | GI50 [2]: 0.223 µM | TGI [2]: 0.899 µM | GI50 [3]: 0.28 µM | TGI [3]: 0.864 µM | GI50 [4]: 1.32 µM | TGI [4]: 3.78 µM | GI50 [5]: 0.127 µM | TGI [5]: 1.4 µM | GI50 [6]: 0.382 µM | TGI [6]: 1.47 µM | GI50 [7]: 0.224 µM | TGI [7]: 0.774 µM | GI50 [8]: 0.0297 µM | TGI [8]: 0.208 µM | GI50 [9]: 0.364 µM | TGI [9]: 1.79 µM | GI50 [10]: 0.28 µM | TGI [10]: 1.32 µM | GI50 [11]: 0.0304 µM | TGI [11]: 0.184 µM | GI50 [12]: 0.0772 µM | TGI [12]: 1.66 µM | GI50 [13]: 0.274 µM | TGI [13]: 1.4 µM | GI50 [14]: 0.258 µM | TGI [14]: 1.35 µM | GI50 [15]: 0.0575 µM | TGI [15]: 0.319 µM | GI50 [16]: 0.0273 µM | TGI [16]: 0.172 µM | GI50 [17]: 0.318 µM | TGI [17]: 1.79 µM

CCOC(=O)c1cc(/C(=N\O)c2cc(OC)c(OC)c(OC)c2)n2cc(C)cc(C)c12
GI50 [18]: 1.93 µM | TGI [18]: > 100 µM | GI50 [2]: 0.565 µM | TGI [2]: 4.16 µM | GI50 [4]: 2.19 µM | TGI [4]: 7.92 µM | GI50 [5]: 3.08 µM | TGI [5]: > 100 µM | GI50 [19]: 3.86 µM | TGI [19]: > 100 µM | GI50 [20]: 2.19 µM | TGI [20]: 5.79 µM | GI50 [6]: 3 µM | TGI [6]: > 100 µM | GI50 [21]: 2.08 µM | TGI [21]: 6.45 µM | GI50 [22]: 1.73 µM | TGI [22]: 5.45 µM | GI50 [23]: 2.4 µM | TGI [23]: 7.68 µM | GI50 [7]: 1.99 µM | TGI [7]: 6.74 µM | GI50 [8]: 2.26 µM | TGI [8]: 7.08 µM | GI50 [10]: 2.56 µM | TGI [10]: > 100 µM | GI50 [11]: 3.33 µM | TGI [11]: > 100 µM | GI50 [24]: 2.81 µM | TGI [24]: > 100 µM | GI50 [25]: 4.57 µM | TGI [25]: > 100 µM | GI50 [26]: 1.48 µM | TGI [26]: 4.48 µM | GI50 [27]: 0.56 µM | TGI [27]: 4.57 µM | GI50 [28]: 1.72 µM | TGI [28]: 5.25 µM | GI50 [12]: 3.99 µM | TGI [12]: > 100 µM | GI50 [13]: 3.83 µM | TGI [13]: > 100 µM | GI50 [29]: 1.74 µM | TGI [29]: 4.33 µM | GI50 [30]: 5.78 µM | TGI [30]: > 100 µM | GI50 [31]: 4.39 µM | TGI [31]: > 100 µM | GI50 [32]: 1.44 µM | TGI [32]: 3.98 µM | GI50 [33]: 3.01 µM | TGI [33]: 10 µM | GI50 [14]: 3.67 µM | TGI [14]: > 100 µM | GI50 [15]: 2.28 µM | TGI [15]: 7.57 µM | GI50 [34]: 5.38 µM | TGI [34]: > 100 µM | GI50 [35]: 1.95 µM | TGI [35]: 5.26 µM | GI50 [36]: 2.36 µM | TGI [36]: > 100 µM | GI50 [37]: 2.82 µM | TGI [37]: > 100 µM | GI50 [38]: 3.66 µM | TGI [38]: 51.3 µM | GI50 [39]: 3.9 µM | TGI [39]: > 100 µM | GI50 [40]: 3.21 µM | TGI [40]: > 100 µM | GI50 [41]: 1.86 µM | TGI [41]: 3.93 µM | GI50 [42]: 2.31 µM | TGI [42]: > 100 µM | GI50 [43]: 2.76 µM | TGI [43]: 7.64 µM | GI50 [44]: 2.34 µM | TGI [44]: 5.7 µM | GI50 [16]: 2.46 µM | TGI [16]: 5.79 µM | GI50 [45]: 1.89 µM | TGI [45]: 4.8 µM | GI50 [17]: 2.7 µM | TGI [17]: > 100 µM | GI50 [46]: 2.64 µM | TGI [46]: 9.32 µM | GI50 [47]: 1.95 µM | TGI [47]: 5.1 µM

CC(=O)OCC(OC(C)=O)C1C[C@H]2O[C@@H]3[C@H](C[C@H]2O1)O[C@@]1(C[C@@H]3C)C[C@H](C)[C@@H]2O[C@]3(C[C@@H]2O1)C[C@H]1O[C@H]2[C@H](C)[C@H]4OC(=O)C[C@H]5CC[C@@H]6OC7[C@H]8O[C@]9(CC[C@H]%10CC(=O)[C@H](CC[C@H]%11C[C@@H](C)C(=O)C(C[C@@H]4O[C@H]2C[C@H]1O3)O%11)O%10)CC8O[C@@H]7[C@@H](O9)[C@H]6O5 (stereo not given in full)
TGI [18]: > 1 µM | TGI [1]: > 1 µM | TGI [2]: 0.0171 µM | TGI [48]: 0.0749 µM | TGI [3]: > 1 µM | TGI [4]: > 0.566 µM | TGI [19]: > 1 µM | TGI [20]: > 1 µM | TGI [6]: > 1 µM | TGI [21]: > 1 µM | TGI [22]: > 1 µM | TGI [23]: > 0.859 µM | TGI [7]: > 1 µM | TGI [8]: > 1 µM | TGI [9]: > 1 µM | TGI [10]: > 1 µM | TGI [49]: > 1 µM | TGI [11]: > 1 µM | TGI [25]: > 1 µM | TGI [26]: > 1 µM | TGI [27]: > 1 µM | TGI [12]: > 1 µM | TGI [13]: > 1 µM | TGI [50]: > 1 µM | TGI [29]: > 1 µM | TGI [31]: 0.411 µM | TGI [51]: > 1 µM | TGI [33]: > 1 µM | TGI [14]: > 1 µM | TGI [15]: > 1 µM | TGI [34]: > 0.258 µM | TGI [35]: > 1 µM | TGI [36]: > 1 µM | TGI [37]: > 0.219 µM | TGI [38]: > 1 µM | TGI [52]: > 1 µM | TGI [53]: 0.00322 µM | TGI [39]: > 1 µM | TGI [54]: 0.0731 µM | TGI [40]: > 1 µM | TGI [41]: > 0.39 µM | TGI [42]: > 0.2 µM | TGI [43]: > 1 µM | TGI [44]: > 1 µM | TGI [45]: > 0.22 µM | TGI [17]: 0.00604 µM | TGI [46]: > 1 µM | TGI [47]: > 1 µM
